Results on 18 compounds are retold here after patent publication US20120214847A1, “2-[1-PHENYL-5-HYDROXY-4a-SUBSTITUTED-HEXAHYDROCYCLOPENTA[F]INDAZOL-5-YL]ETHYL PHENYL DERIVATIVES AS GLUCOCORTICOID RECEPTOR LIGANDS” (Merck Sharp & Dohme Corp., priority 2009, published 2012).

The target in the assay is T1, glucocorticoid receptor (Homo sapiens, UniProt P04150).
T1 construct: endogenous in cells; host or cells: HeLa (ATCC) cell lysate supernatant
T1 sequence (P04150 1-777): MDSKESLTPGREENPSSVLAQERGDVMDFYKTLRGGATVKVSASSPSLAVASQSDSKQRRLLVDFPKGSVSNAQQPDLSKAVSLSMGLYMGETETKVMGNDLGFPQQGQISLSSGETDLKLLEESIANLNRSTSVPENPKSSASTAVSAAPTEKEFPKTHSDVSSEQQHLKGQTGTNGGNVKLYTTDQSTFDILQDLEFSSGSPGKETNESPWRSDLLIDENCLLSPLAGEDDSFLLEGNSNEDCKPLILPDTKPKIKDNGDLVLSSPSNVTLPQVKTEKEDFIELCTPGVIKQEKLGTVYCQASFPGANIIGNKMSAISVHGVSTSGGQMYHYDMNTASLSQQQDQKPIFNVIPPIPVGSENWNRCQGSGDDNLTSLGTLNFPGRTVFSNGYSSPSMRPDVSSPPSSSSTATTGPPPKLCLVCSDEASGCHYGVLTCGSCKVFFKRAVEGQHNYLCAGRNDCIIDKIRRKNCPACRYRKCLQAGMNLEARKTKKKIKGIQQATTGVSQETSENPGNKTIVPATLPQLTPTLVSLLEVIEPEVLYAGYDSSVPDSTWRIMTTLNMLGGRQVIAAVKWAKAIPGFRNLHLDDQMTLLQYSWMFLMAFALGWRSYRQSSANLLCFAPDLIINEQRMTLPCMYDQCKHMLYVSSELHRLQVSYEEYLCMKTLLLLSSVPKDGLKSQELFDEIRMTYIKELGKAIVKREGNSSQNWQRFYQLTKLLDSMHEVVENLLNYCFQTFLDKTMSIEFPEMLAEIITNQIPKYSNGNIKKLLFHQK
In words: Ligand binding assay (GRBind), 3H-dexamethasone displacement in HeLa cell lysate. The conditions noted are these: 3H-DEX tracer. How it is done: Binding Buffer: TEGM (10 mM Tris-HCl, 1 mM EDTA, 10% glycerol, 1 mM betamecaptoethanol, 10 mM Sodium Molybdate, pH 7.2)
50% HAP Slurry: Calbiochem Hydroxylapatite, Fast Flow, in 10 mM Tris, pH 8.0 and 1 mM EDTA.
Wash Buffer: 40 mM Tris, pH7.5, 100 mM KCl, 1 mM EDTA and 1 mM EGTA. 95% EtOH Dexmethasone-methyl-3H, (DEXA*); (Amersham cat#TRK645) Dexamethasone(DEX) (Sigma, cat#01756):
Hydroxylapatite Fast Flow; Calbiochem Cat#391947
25 Molybdate=Molybdic Acid (Sigma, M1651)
5 Cells (Hall R. E., et al., European Journal of Cancer, 30A: 484-490 (1994)) HeLa (ATCC) cultured in RPMI 1640 (Gibed 11835-055) containing 20 mM Hepes, 4 mM L-glu, 10 ug/ml of human insulin (Sigma, 1-0259), 10% FBS and 20 uglml of Gentamicin (Gibco#15710072) are rinsed twice in PBS. Phenol red-free Trypsin-EDTA is diluted in the same PBS 1:10. The cell layers are rinsed with IX Trypsin, extra Trypsin is poured out, and the cell layers are incubated at 37° C. for 2 min. The flask is tapped and checked for signs of cell detachment. Once the cells begin to slide off the flask, the complete media is added. The cells are counted at this point, then diluted to the appropriate concentration and split into flasks or dishes for further culturing (Usually 1:3 to 1:6 dilution).
Preparation of HeLa Cell Lysate
When the cells are 70 to 85% confluent, they are detached as described above, and collected by centrifuging at 1000 g for 10 min at 4° C. The cell pellet is washed twice with TEGM (10 mM Tris-HCl, 1 mM EDTA, 10% glycerol, 1 mM beta-mercaptoethanol, 10 mM Sodium Molybdate, pH 7.2). After the final wash, the cells are resuspended in TEGM at a concentration of 10^7 cells/mL. The cell suspension is snap frozen in liquid nitrogen or ethanol/dry ice bath and transferred to −80° C. freezer on dry ice. Before setting up the binding assay, the frozen samples are left on ice-water to just thaw. Then the samples are centrifuged at 12,500 g to 20,000 g for 30 min at 4° C. The supernatant is used to set-up assay right away. If using 50 μL of supernatant, the test compound can be prepared in 50 μL of the TEGM buffer.
Procedure for Multiple Compound Screening
1×TEGM buffer is prepared, and the isotope-containing assay mixture is prepared in the following order: EtOH (2% final concentration in reaction), 3H-DEX (Amersham Biosciences) and 1×TEGM. [e.g. For 100 samples, 200 JlL (100×2) of EtOH+4.25 JlL of 1:10 ^3H-Dex stock+2300 μL (100×23) 1×TEGM]. The compound is serially diluted, e.g., if starting final conc. is 1 μM, and the compound is in 25 μL of solution, for duplicate samples, 75 μL of 4×1 μM solution is made and 3 μL of 100). 1M is added to 72 μL of buffer, and 1:5 serial dilution.
25 μL of ^3H-DEX (6 nM) trace and 25 μL, compound solution are first mixed together, followed by addition of 50 μL receptor solution. The reaction is gently mixed, spun briefly at about 200 rpm and incubated at 4° C. overnight. 100 μL of 50% HAP slurry is prepared and added to the incubated reaction which is then vortexed and incubated on ice for 5 to 10 min. The reaction mixture is vortexed twice more to resuspend HAP while incubating reaction. The samples in 96-well format are then washed in wash buffer using the FilterMate™ Universal Harvester plate washer (Packard). The washing process transfers HAP pellet containing ligand-bound expressed receptor to Unifilter-96 GFIB filter plate (Packard). The HAP pellet on the filter plate is incubated with […] of MICROSCINT (Packard) scintillant for 30 min before being counted on the TopCount microscintillation counter (Packard). IC50s are calculated using DEX as a reference.

The Ki is the dissociation constant of the complex between target and ligand, obtained from inhibition or displacement. A low value points to tighter binding.

With `CC[C@]12Cc3cnn(-c4ccc(F)cc4)c3C=C1CC[C@@]2(O)CCc1nccc(OC)c1C(F)C(N)=O` (stereo partly drawn) [Example 65, 2-(2-{2-[(4aS,5R)-4a-Ethyl-1-(4-fluorophenyl)-5-hydroxy-1,4,4a,5,6,7-hexahydrocyclopenta[f]indazol-5-yl]ethyl}-4-methoxypyridin-3-yl)-2-fluoroacetamide], affinity was put at a Ki of 9.2 nM.

Regarding `NC(=O)c1ccccc1CC[C@]1(O)CCC2=Cc3c(cnn3-c3ccccc3)C[C@@]21C1CC1` [Example 29, 2-{2-[(4aR,5R)-4a-Cyclopropyl-5-hydroxy-1-phenyl-1,4,4a,5,6,7-hexahydrocyclopenta[f]indazol-5-yl]ethyl}benzamide], the Ki was found to be 2.29 nM.

Regarding `CC(C)(CO)NC(=O)c1ccccc1CC[C@]1(O)CCC2=Cc3c(cnn3-c3ccc(F)cc3)C[C@@]21C1CC1` [Example 45, 2-{2-[(4aR,5R)-4a-Cyclopropyl-1-(4-fluorophenyl)-5-hydroxy-1,4,4a,5,6,7-hexahydrocyclopenta[f]indazol-5-yl]ethyl}-N-(1-hydroxy-2-methylpropan-2-yl)benzamide], the Ki worked out at 2.09 nM.

`CC[C@]12Cc3cnn(-c4ccccc4)c3C=C1CC[C@@]2(O)CCc1cccc(F)c1C#N` [Example 15, 2-{2-[(4aS,5R)-4a-Ethyl-5-hydroxy-1-phenyl-1,4,4a,5,6,7-hexahydrocyclopenta[f]indazol-5-yl]ethyl}-6-fluorobenzonitrile] yielded a Ki of 1.28 nM. To `CC[C@]12Cc3cnn(-c4cccnc4)c3C=C1CC[C@@]2(O)CCc1cccc(F)c1C#N` [Example 10, 2-{2-[(4aS,5R)-4a-Ethyl-5-hydroxy-1-(pyridin-3-yl)-1,4,4a,5,6,7-hexahydrocyclopenta[f]indazol-5-yl]ethyl}-6-fluorobenzonitrile] belongs 2.59 nM; to `NC(=O)CNC(=O)c1ccccc1CC[C@]1(O)CCC2=Cc3c(cnn3-c3ccc(F)cc3)C[C@@]21C1CC1` [Example 47, N-(2-Amino-2-oxoethyl)-2-{2-[(4aR,5R)-4a-cyclopropyl-1-(4-fluorophenyl)-5-hydroxy-1,4,4a,5,6,7-hexahydrocyclopenta[f]indazol-5-yl]ethyl}benzamide], 1.43 nM; to `CC[C@]12Cc3cnn(-c4ccc(F)cc4)c3C=C1CC[C@@]2(O)CCc1ncccc1S(=O)(=O)C(C)C` [Example 62, (4aS,5R)-4a-Ethyl-1-(4-fluorophenyl)-5-{2-[3-(propan-2-ylsulfonyl)pyridin-2-yl]ethyl}-1,4,4a,5,6,7-hexahydrocyclopenta[f]indazol-5-ol], 4.06 nM. To `CC[C@]12Cc3cnn(-c4ccc(F)cc4)c3C=C1CC[C@@]2(O)CCc1ccccc1S(=O)(=O)C(C)C` [Example 40, (4aS,5R)-4a-Ethyl-1-(4-fluorophenyl)-5-{2-[2-(propan-2-ylsulfonyl)phenyl]ethyl}-1,4,4a,5,6,7-hexahydrocyclopenta[f]indazol-5-ol] belongs 2.45 nM; to `NC(=O)[C@H](F)c1c(F)cccc1CC[C@]1(O)CCC2=Cc3c(cnn3-c3ccc(F)cc3)C[C@@]21C1CC1` [Example 57, (2R)-2-(2-{2-[(4aR,5R)-4a-Cyclopropyl-1-(4-fluorophenyl)-5-hydroxy-1,4,4a,5,6,7-hexahydrocyclopenta[f]indazol-5-yl]ethyl}-6-fluorophenyl)-2-fluoroethanamide], 1.5 nM. `NC(=O)Cc1ccccc1CC[C@]1(O)CCC2=Cc3c(cnn3-c3ccc(F)cc3)C[C@@]21C1CC1` [Example 56, 2-(2-{2-[(4aR,5S)-4a-Cyclopropyl-1-(4-fluorophenyl)-5-hydroxy-1,4,4a,5,6,7-hexahydrocyclopenta[f]indazol-5-yl]ethyl}phenyl)acetamide] gave an inhibition constant (Ki) of 1.61 nM.

`CC[C@]12Cc3cnn(-c4ccc(F)cc4)c3C=C1CC[C@@]2(O)CCc1ccc(F)cc1C(N)=O` [Example 8, 2-{2-[(4aS,5R)-4a-Ethyl-1-(4-fluorophenyl)-5-hydroxy-1,4,4a,5,6,7-hexahydrocyclopenta[f]indazol-5-yl]ethyl}-5-fluorobenzamide]: affinity was put at a Ki of 1.27 nM. The Ki values of the last two compounds are within 1.5-fold of each other. The compound `CC[C@]12Cc3cnn(-c4ccc(F)cc4)c3C=C1CC[C@@]2(O)CCc1ccccc1S(=O)(=O)CC` [Example 51, (4aS,5R)-4a-Ethyl-5-{2-[2-(ethylsulfonyl)phenyl]ethyl}-1-(4-fluorophenyl)-1,4,4a,5,6,7-hexahydrocyclopenta[f]indazol-5-ol] returned a Ki of 2.45 nM. The compound `CC[C@]12Cc3cnn(-c4ccc(F)cc4)c3C=C1CC[C@@]2(O)CC(O)c1ncccc1F` (stereo partly drawn) [Example 76, (4aS,5R)-4a-Ethyl-1-(4-fluorophenyl)-5-[2-(3-fluoropyridin-2-yl)-2-hydroxyethyl]-1,4,4a,5,6,7-hexahydrocyclopenta[f]indazol-5-ol] displayed a Ki of 20.8 nM. To `CC[C@]12Cc3cnn(-c4ccccc4)c3C=C1CC[C@@]2(O)CC(O)c1ccccn1` (single isomer, unassigned) [Example 67a] belongs 11.3 nM; to `CS(=O)(=O)c1ccccc1CC[C@]1(O)CCC2=Cc3c(cnn3-c3ccc(F)cc3)C[C@@]21C1CC1` [Example 58, (4aR,5R)-4a-Cyclopropyl-1-(4-fluorophenyl)-5-{2-[2-(methylsulfonyl)phenyl]ethyl}-1,4,4a,5,6,7-hexahydrocyclopenta[f]indazol-5-ol], 0.88 nM; to `CC[C@]12Cc3cnn(-c4cccnc4)c3C=C1CC[C@@]2(O)CCc1ccccc1C(N)=O` [Example 13, 2-{2-[(4aS,5R)-4a-Ethyl-5-hydroxy-1-(pyridin-3-yl)-1,4,4a,5,6,7-hexahydrocyclopenta[f]indazol-5-yl]ethyl}benzamide], 28.4 nM. In the case of `CC[C@]12Cc3cnn(-c4cccnc4)c3C=C1CC[C@@]2(O)CCc1ccccc1C#N` [Example 5, 2-{2-[(4aS,5R)-4a-Ethyl-5-hydroxy-1-(pyridin-3-yl)-1,4,4a,5,6,7-hexahydrocyclopenta[f]indazol-5-yl]ethyl}benzonitrile] it was 2.01 nM; in that of `CC[C@]12Cc3cnn(-c4ccc(F)cc4)c3C=C1CC[C@@]2(O)CC(O)c1ncccc1F` (stereo partly drawn) [Example 77, (4aS,5R)-4a-Ethyl-1-(4-fluorophenyl)-5-[2-(3-fluoropyridin-2-yl)-2-hydroxyethyl]-1,4,4a,5,6,7-hexahydrocyclopenta[f]indazol-5-ol], 4.39 nM.
